The values that follow come from patent publication US20190031717A1, “MULTI-FUNCTIONAL FUSION POLYPEPTIDE, PREPARATION METHOD THEREOF, AND APPLICATION OF SAME” (NANJING ANJI BIOLOGICAL TECHNOLOGY CO., LTD, priority 2016, published 2019).

Assay [1] has as its system A549 cells induced by TGF-β1 (lung fibrosis model). Nature of the assay: Hydroxyproline content in TGF-β1-induced A549 pulmonary fibrosis cell model. Type of assay: cell-based, human. The note with it: for Hydroxyproline Content Inhibition Rate in the Pulmonary Fibrosis Model: 48 hours. Here is the method:
Human non-small cell lung cancer cells A549 were cultured in DMEM medium containing 10% (volume fraction) fetal bovine serum, cultured in a carbon dioxide incubator with a volume fraction of 5% at 37° C., and changed once every other day, depending on cell density. A549 cells in logarithmic growth phase were digested with 0.25% trypsin to prepare a cell suspension, adjusted to a cell concentration of 1×10^9 cells/L, and seeded at a density of 4×10^5 cells/cm2 in a cell culture dish of 90 cm^2. The cells were randomly divided into two groups: (1) control group: cultured in DMEM containing 10% (volume fraction) fetal bovine serum; (2) model group: containing 10% (volume fraction) fetal bovine serum, transforming growth factor (TGF-β1, final concentration 5 μg/L) was cultured in DMEM. The cells were cultured at 37° C. in a volumetric 5% carbon dioxide incubator, and changed every other day, depending on the cell density. Cell morphology was observed daily using an inverted microscope to determine when the model was established. When A549 cells are changed from the cobblestone shape of the original epithelial cells to the long spindle shape of the interstitial cells, the modeling is successfully established.
After 48 hours of addition of the polypeptides, the cells of the control group, the model group, and the administration group were collected for subsequent measurement of molecular markers related to pulmonary fibrosis.
Hydroxyproline accounts for 13.4% of collagen, so the content of hydroxyproline can reflect the accumulation of collagen during pulmonary fibrosis, which in turn reflects the degree of pulmonary fibrosis.
Prepare citric acid buffer: 120 g of sodium citrate, 12 mL of glacial acetic acid, 46 g of citric acid, 34 g of sodium hydroxide, dissolved in distilled water, adjust the pH to 6.0, and then dilute to 1000 mL.
Prepare 0.05 mol/L chloramine T solution: weigh 7.05 g of chloramine T, dissolve in 100 mL of distilled water, then add 150 mL of ethylene glycol, and add 250 mL of citric acid buffer to mix well.
Prepare p-dimethylaminobenzaldehyde: Reagent A: Take 20 mL of absolute ethanol, slowly add 2.74 mL of concentrated sulfuric acid; Reagent B: Take 12.0 g of p-dimethylaminobenzaldehyde, slowly add 40 mL of absolute ethanol. Heat in a water bath to completely dissolve and cool to room temperature, then slowly add the A solution to B and mix well.
Prepare a […] perchloric acid solution: take 27 mL of perchloric acid and dilute to 100 mL with distilled water.
The specific steps are as follows: collect the cells in a 1 mL water solution and lyse the cells using a homogenizer; adjust the pH to neutral, dilute to 3 mL, add activated carbon to centrifuge; take 1 mL supernatant, add 1 mL solution 1 (1 mL citrate buffer and 1 mL 0.05 mol/L chloramine T solution), stand for 10 minutes, add 1 mL of perchloric acid, stand for 5 minutes, add 1 mL of p-dimethylaminobenzaldehyde reagent, keep in 60° C. water bath for 15 minutes; centrifuge at 3500 rpm/min for 10 minutes, take the supernatant to measure the absorbance value at a wavelength of 550 nm.
The test was repeated 3 times independently, and the inhibition rate was calculated as follows: inhibition rate (%)=(1−experimental group absorbance/model group absorbance)×100%.

The next assay has as its system Staphylococcal fluid. Nature of the assay: Mouse pneumonia model, bacterial. The format is in vivo, BALB/C mice. Also on record: concentration or dose not given beside the values. The settings on record: mean ± SD. Here is the method:
(§1) The mouse pneumonia model was successfully established by the nose-drop method. To build the mouse pneumonia model, BALB/C mice with a body mass of 16-22 g were selected and anesthetized pneumonia chain was prepared after anesthesia with ether on day 0, day 1, and day 2. Staphylococcal fluid, adenovirus concentrate, Mycoplasma pneumoniae, Chlamydia pneumoniae, protozoa, and pneumonia fungi were slowly dripped into the nasal cavity of the mice, so that they enter the tracheobronchial. During the operation process, care was exercised to prevent bacterial fluid from flowing into the esophagus, which leads to inactivation the bacterial fluid. After successful model establishment, the polypeptides of the present invention were administered, and the results were shown in Table 5. […] The results were expressed in average value±standard deviation.

Another assay concerns adenovirus concentrate. Nature of the assay: Mouse pneumonia model, viral. The format is in vivo, BALB/C mice. The note with it: mean ± SD. Here is the method:
as §1

In another assay the test system is Mycoplasma pneumoniae. Nature of the assay: Mouse pneumonia model, mycoplasma. Type of assay: in vivo, BALB/C mice. The settings on record: mean ± SD. Set-up: concentration or dose not given beside the values. As for the experimental part:
as §1

The test system of another assay is Chlamydia pneumoniae. Put plainly: Mouse pneumonia model, chlamydia. The format is in vivo, BALB/C mice. Set-up: concentration or dose not given beside the values. The settings on record: mean ± SD. Here is the method: as §1
The subject of a further assay is protozoa. Nature of the assay: Mouse pneumonia model, protozoal. Type of assay: in vivo, BALB/C mice. The settings on record: mean ± SD. Also on record: concentration or dose not given beside the values. Here is the method: as §1
In the next assay the test system is pneumonia fungi. Put plainly: Mouse pneumonia model, fungal. Type of assay: in vivo, BALB/C mice. Also on record: concentration or dose not given beside the values. The note with it: mean ± SD. As for the experimental part: as §1
In assay [2] the test system is Pneumonia caused by lung infection. Put plainly: Mouse pneumonia model, pneumonia caused by lung infection. The format is in vivo, BALB/C mice. Also on record: concentration or dose not given beside the values. The note with it: mean ± SD. Here is the method: as §1
The subject of the next assay is Adenosquamous carcinoma. Put plainly: MTT assay, lung cancer tumor cells. Type of assay: cell-based, human. Set-up: concentration or dose not given beside the values. The note with it: 48 h, mean ± SD. Here is the method: (§2) The inhibition of the growth of human lung cancer tumor cells by the polypeptide of the present invention was examined by MTT assay. The lung cancer tumor cells were cultured in a 37° C., 5% (volume fraction) CO2 incubator to a density of 90% or more, and collected by trypsinization. The cells were resuspended in the culture medium and counted under a microscope to adjust the cell concentration to 2.0×10^4 cells/mL, the cell suspension was inoculated into a 96-well plate at 100 μL per well, and cultured overnight at 37° C. in a 5% (volume fraction) CO2 incubator. After the cells were completely adhered, the polypeptide of the present invention was added as a drug-administered group, and a culture solution containing no drug was used as a blank control group, and the culture solution was diluted to each predetermined concentration. Each dilution was separately added to a 96-well plate at 100 μL per well and incubated for 48 h at 37° C. in a 5% (volume fraction) CO2 incubator. 20 μL of 5 mg/mL MTT was added to each well of a 96-well plate, and incubation was continued for 4 hours. The medium was aspirated, and the cells were dissolved in 100 μL of DMSO per well. The absorbance was measured by a microplate reader at a detection wavelength of 570 nm and a reference wavelength of 630 nm, and the growth inhibition rate was calculated as follows: tumor growth inhibition rate (%)=(1−administered group absorbance value/unadministered group absorbance value)×100%, and the experiment was repeated 3 times independently. The results obtained by the test were expressed as mean±standard deviation. The results in Table 6 indicate that the polypeptides of the present invention have a good inhibitory effect on proliferation of a variety of human lung cancer tumors (FIG. 5).
For orientation: Formazan colour is commonly taken as a measure of viable cells.

In the next assay the test system is Large cell lung cancer. Put plainly: MTT assay, lung cancer tumor cells. The format is cell-based, human. Set-up: concentration or dose not given beside the values. The note with it: 48 h, mean ± SD. As for the experimental part: as §2
For assay [3], the system named is Non-small cell lung cancer. Nature of the assay: MTT assay, lung cancer tumor cells. The note with it: 48 h, mean ± SD. The format is cell-based, human. Set-up: concentration or dose not given beside the values. As for the experimental part: as §2

For “Pro-(D-Pyr)-(D-Cys)-Bip-Arg-Gly-Glu-Gly-Gly-Gly-Gly-Ile-Val-Arg-Arg-Ala-Asp-Arg-Ala-Ala-Val-Pro-Gly-Gly-Gly-Gly-Arg-Gly-Asp [Polypeptide I]”, the “effect on content of hydroxyproline in lung fibrosis model cells (FIG. 1-3), in words” value in [1] is recorded as “can inhibit the content of hydroxyproline in lung fibrosis model cells”. Besides, the “Hydroxyproline Content Inhibition Rate in the Pulmonary Fibrosis Model” value in assay [1] (4 uM) is listed as 36.50%; in [1] (8 uM), 52.14%. The “Inhibitory Effects on Various Pulmonary Infections” value (shortened to “Inhibitory Effects”) in the assay with Staphylococcal fluid came out at 33.15 ± 10.06%; in the assay on adenovirus concentrate, 43.78 ± 14.17%; in the assay with Mycoplasma pneumoniae it was 29.89 ± 12.97%; with Chlamydia pneumoniae, 35.13 ± 13.63%; with protozoa, 46.25 ± 18.59%; in the assay on pneumonia fungi, 43.91 ± 15.11%. Further, the “Inhibitory Effects” value in assay [2] stood at 38.79 ± 16.78%. Besides, the figures for the “tumor growth inhibition rate, MTT Assay” value (in the assay with Adenosquamous carcinoma; in the assay on Large cell lung cancer; in [3]) were 44.84 ± 12.58%, 65.87 ± 14.65% and 69.38 ± 18.03%, respectively.
As for “Arg-Gly-Asp-Gly-Gly-Gly-Gly-Ile-Val-Arg-Arg-Ala-Asp-Arg-Ala-Ala-Val-Pro-Gly-Gly-Gly-Gly-Pro-(D-Pyr)-(D-Cys)-Bip-Arg-Gly-Glu [Polypeptide IV]”, the “effect on content of hydroxyproline in lung fibrosis model cells (FIG. 1-3), in words” value in assay [1] is listed as “can inhibit the content of hydroxyproline in lung fibrosis model cells”. In addition, the results for the “Hydroxyproline Content Inhibition Rate in the Pulmonary Fibrosis Model” value in [1] (4 uM) and in assay [1] (8 uM) were 33.09% and 47.28%, respectively. Further, the “Inhibitory Effects” value was 44.75 ± 13.08% in the assay with Staphylococcal fluid; 59.10 ± 18.42% in the assay on adenovirus concentrate; 40.35 ± 16.87% in the assay with Mycoplasma pneumoniae; 47.43 ± 17.72% in the assay on Chlamydia pneumoniae; 62.44 ± 24.16% in the assay on protozoa; 59.28 ± 19.64% with pneumonia fungi. For the same substance, in assay [2], the “Inhibitory Effects” value is 52.37 ± 21.81%. In addition, the “tumor growth inhibition rate, MTT Assay” value was found to be 60.53 ± 16.36% in the assay on Adenosquamous carcinoma, 88.92 ± 19.05% in the assay on Large cell lung cancer and 93.66 ± 23.44% in assay [3].
